IC50 data for 30 molecules are collected here from patent publication US10035789B2, “Compounds useful for treating disorders related to RET” (BLUEPRINT MEDICINES CORPORATION, priority 2016, dated 2018).

The target of assay [1] is T1, wild type RET (Homo sapiens, UniProt P07949).
T1 construct: purchased ProQinase 1090-0000-1
Nature of the assay: RET Wild Type Assay at KM (Caliper electrophoretic mobility shift). The assay is classed as biochemical. The settings on record: 25 μM ATP, 25° C., 120 minutes.

The target in assay [2] is T2, RET V804L (Homo sapiens, UniProt P07949, V804L).
T2 construct: purchased ProQinase 1096-0000-1
T2 sequence (P07949 29-1114 V804L): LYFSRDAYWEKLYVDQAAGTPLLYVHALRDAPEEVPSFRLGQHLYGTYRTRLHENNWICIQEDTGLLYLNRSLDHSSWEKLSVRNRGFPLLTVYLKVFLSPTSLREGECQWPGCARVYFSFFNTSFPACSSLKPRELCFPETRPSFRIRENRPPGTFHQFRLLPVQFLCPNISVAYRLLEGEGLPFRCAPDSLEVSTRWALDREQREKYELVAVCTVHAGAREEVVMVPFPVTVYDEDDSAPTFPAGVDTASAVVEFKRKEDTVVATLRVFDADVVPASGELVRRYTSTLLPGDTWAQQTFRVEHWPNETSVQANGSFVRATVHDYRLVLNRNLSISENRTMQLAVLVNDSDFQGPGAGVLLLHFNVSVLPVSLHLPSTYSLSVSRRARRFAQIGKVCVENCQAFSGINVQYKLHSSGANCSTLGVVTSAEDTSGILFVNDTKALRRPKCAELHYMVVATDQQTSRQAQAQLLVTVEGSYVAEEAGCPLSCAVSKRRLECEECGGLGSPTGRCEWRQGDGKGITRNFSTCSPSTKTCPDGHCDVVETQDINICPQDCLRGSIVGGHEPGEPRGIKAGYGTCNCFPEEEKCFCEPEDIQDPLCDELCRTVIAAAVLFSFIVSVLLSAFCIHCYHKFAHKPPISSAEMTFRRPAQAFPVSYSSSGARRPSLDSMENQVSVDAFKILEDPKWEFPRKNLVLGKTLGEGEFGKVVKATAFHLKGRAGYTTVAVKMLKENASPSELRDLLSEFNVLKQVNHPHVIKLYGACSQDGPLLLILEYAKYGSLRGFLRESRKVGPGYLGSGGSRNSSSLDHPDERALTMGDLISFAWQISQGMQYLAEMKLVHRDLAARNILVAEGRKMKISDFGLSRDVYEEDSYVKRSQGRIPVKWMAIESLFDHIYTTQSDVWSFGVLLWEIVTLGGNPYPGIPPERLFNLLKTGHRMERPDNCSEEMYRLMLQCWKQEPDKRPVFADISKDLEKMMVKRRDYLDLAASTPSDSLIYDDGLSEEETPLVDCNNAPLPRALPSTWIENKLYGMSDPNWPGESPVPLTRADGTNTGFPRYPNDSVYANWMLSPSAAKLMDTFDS
Nature of the assay: RET V804L Gatekeeper Mutant Assay at KM (Caliper electrophoretic mobility shift). The assay is classed as biochemical. The settings on record: 10 μM ATP, 25° C., 120 minutes.

By IC50 is commonly meant the concentration that gives 50% inhibition.

T1 sequence (P07949 29-1114): as the sequence (P07949 29-1114 V804L) above, with L776V counted along it

`Cc1cc(Nc2cc(C)[nH]n2)nc(C2CCC(C(=O)N[C@@H](C)c3ccc(-n4cc(F)cn4)nc3)C2)n1` (mixture of isomers) [Compound 106, N—((S)-1-(6-(4-fluoro-1H-pyrazol-1-yl)pyridin-3-yl)ethyl)-3-(4-methyl-6-((5-methyl-1H-pyrazol-3-yl)amino)pyrimidin-2-yl)cyclopentane-1-carboxamide]: the IC50 in assay [1] and in assay [2] was less than 0.01 µM throughout.

For `Cc1cc(Nc2cc(C)[nH]n2)nc(C2(O)CCC(C(=O)NCc3ccc(-n4nc(C)cc4C)nc3)C2)c1` (mixture of isomers) [Compound 111], the IC50 in assay [1] and in assay [2] was less than 0.01 µM in each case.

With `Cc1cc(Nc2cc(C)[nH]n2)nc(C2(O)CCC(C(=O)N[C@@H](C)c3cnc(-n4cc(F)cn4)cn3)C2)c1` (mixture of isomers) [Compound 123], the IC50 in assay [1] and in assay [2] was less than 0.01 µM each time.

As for `Cc1cc(Nc2cc(C)[nH]n2)nc(C2(O)CCC(C(=O)NCc3ccc(-n4cc(Cl)cn4)nc3)C2)c1` (mixture of isomers) [Compound 126], the 50% inhibitory concentration (IC50) in assay [1] and in assay [2] was less than 0.01 µM in each case.

As to `Cc1cc(Nc2cc(C)[nH]n2)nc([C@@H]2CC[C@H](C(=O)N[C@@H](C)c3ccc(-n4cc(F)cn4)nc3)C2)n1` (single isomer, unassigned) [Compound 107], the half-inhibitory concentration (IC50) in assay [1] and in assay [2] was 0.01 to 0.1 µM each time.

In the case of `Cc1cc(Nc2cc(C)[nH]n2)nc([C@H]2CC[C@@H](C(=O)N[C@@H](C)c3ccc(-n4cc(F)cn4)nc3)C2)n1` (single isomer, unassigned) [Compound 108], the IC50 in assay [1] and in assay [2] was 0.01 to 0.1 µM in each case.

In the case of `Cc1cc(Nc2cc(C)[nH]n2)nc([C@@H]2CC[C@@H](C(=O)N[C@@H](C)c3ccc(-n4cc(F)cn4)nc3)C2)n1` (single isomer, unassigned) [Compound 109], the IC50 in assay [1] and in assay [2] was less than 0.01 µM in each case.

Regarding `Cc1cc(Nc2cc(C)[nH]n2)nc([C@H]2CC[C@H](C(=O)N[C@@H](C)c3ccc(-n4cc(F)cn4)nc3)C2)n1` (single isomer, unassigned) [Compound 110], the IC50 in assay [1] and in assay [2] was less than 0.01 µM in each case.

With `Cc1cc([C@@H]2CC[C@@](C)(C(=O)N[C@@H](C)c3ccc(-n4cc(F)cn4)nc3)C2)nc(Nc2cc(C)[nH]n2)n1` (single isomer, unassigned) [Compound 116, (1R,3R or 1S,3S)—N—((S)-1-(6-(4-fluoro-1H-pyrazol-1-yl)pyridin-3-yl)ethyl)-1-methyl-3-(6-methyl-2-((5-methyl-1H-pyrazol-3-yl)amino)pyrimidin-4-yl)cyclopentane-1-carboxamide], the IC50 in assay [1] and in assay [2] was less than 0.01 µM in each case.

For the molecule `Cc1cc([C@@H]2CC[C@](C)(C(=O)N[C@@H](C)c3ccc(-n4cc(F)cn4)nc3)C2)nc(Nc2cc(C)[nH]n2)n1` (single isomer, unassigned) [Compound 117, (1R,3R or 1S,3S)—N—((S)-1-(6-(4-fluoro-1H-pyrazol-1-yl)pyridin-3-yl)ethyl)-1-methyl-3-(6-methyl-2-((5-methyl-1H-pyrazol-3-yl)amino)pyrimidin-4-yl)cyclopentane-1-carboxamide], the IC50 in assay [1] and in assay [2] was less than 0.01 µM in each case.

For `Cc1cc(Nc2cc(C)[nH]n2)nc([C@]2(O)CC[C@@H](C(=O)N[C@@H](C)c3ccc(-n4cc(F)cn4)nc3)C2)c1` (single isomer, unassigned) [Compound 121], the IC50 in assay [1] is less than 0.01 µM.

For the molecule `Cc1cc(Nc2cc(C)[nH]n2)nc([C@@]2(O)CC[C@H](C(=O)N[C@@H](C)c3ccc(-n4cc(F)cn4)nc3)C2)c1` (single isomer, unassigned) [Compound 122], the IC50 in assay [1] and in assay [2] was less than 0.01 µM each time.

For the molecule `Cc1cc(Nc2cc(C3CC3)[nH]n2)nc([C@@]2(O)CC[C@H](C(=O)NCc3ccccc3)C2)c1` [Compound 100], the values for the IC50 in assay [1] and in assay [2] were 0.01 to 0.1 µM and less than 0.01 µM, respectively.

Regarding `Cc1cc(Nc2cc(C)[nH]n2)nc([C@@]2(O)CC[C@@H](C(=O)NCc3ccc(-n4cccn4)nc3)C2)c1` [Compound 101], the figures for the IC50 in assay [1] and in assay [2] were 0.01 to 0.1 µM and less than 0.01 µM, respectively.

Turning to `Cc1cc(Nc2cc(C)[nH]n2)nc([C@]2(O)CC[C@H](C(=O)NCc3ccc(-n4cccn4)nc3)C2)c1` [Compound 102], the IC50 in assay [1] and in assay [2] was 0.01 to 0.1 µM throughout.

On to `Cc1cc(Nc2cc(C)[nH]n2)nc([C@]2(O)CC[C@@H](C(=O)NCc3ccc(-n4cccn4)nc3)C2)c1` [Compound 103], for which the IC50 in assay [1] and in assay [2] was less than 0.01 µM throughout.

As to `Cc1cc(Nc2cc(C)[nH]n2)nc([C@@]2(O)CC[C@H](C(=O)NCc3ccc(-n4cccn4)nc3)C2)c1` [Compound 104], the IC50 in assay [1] is 0.01 to 0.1 µM; in assay [2], less than 0.01 µM.

On to `CCOc1ccc(CNC(=O)C2CC[C@](O)(c3cc(C)cc(Nc4cc(C5CC5)[nH]n4)n3)C2)cc1` (stereo partly shown) [Compound 105], for which the half-inhibitory concentration (IC50) in assay [1] and in assay [2] was less than 0.01 µM throughout.

In the case of `Cc1cc(Nc2cc(C)[nH]n2)nc([C@@H]2CC[C@](C)(C(=O)N[C@@H](C)c3ccc(-n4cc(F)cn4)nc3)C2)n1` [Compound 112], the IC50 was more than 0.1 µM in assay [1] and 0.01 to 0.1 µM in assay [2].

For `Cc1cc(Nc2cc(C)[nH]n2)nc([C@H]2CC[C@@](C)(C(=O)N[C@@H](C)c3ccc(-n4cc(F)cn4)nc3)C2)n1` [Compound 113], the IC50 in assay [1] and in assay [2] was 0.01 to 0.1 µM throughout.

On to `Cc1cc(Nc2cc(C)[nH]n2)nc([C@H]2CC[C@](C)(C(=O)N[C@@H](C)c3ccc(-n4cc(F)cn4)nc3)C2)n1` [Compound 114], for which the 50% inhibitory concentration (IC50) in assay [1] and in assay [2] was less than 0.01 µM each time.

Turning to `Cc1cc(Nc2cc(C)[nH]n2)nc([C@@H]2CC[C@@](C)(C(=O)N[C@@H](C)c3ccc(-n4cc(F)cn4)nc3)C2)n1` [Compound 115], the IC50 in assay [1] was less than 0.01 µM.

As to `Cc1cc(Nc2cc(C)[nH]n2)nc(C2(O)CCC(C(=O)N[C@@H](C)c3ccc(-n4cc(F)cn4)nc3)C2)c1` (stereo partly shown) [Compound 118], the half-inhibitory concentration (IC50) in assay [1] and in assay [2] was less than 0.01 µM each time.

Consider `Cc1cc(Nc2cc(C)[nH]n2)nc([C@@]2(O)CC[C@@H](C(=O)N[C@@H](C)c3ccc(-n4cc(F)cn4)nc3)C2)c1` [Compound 119], for which the IC50 in assay [1] and in assay [2] was less than 0.01 µM throughout.

Regarding `Cc1cc(Nc2cc(C)[nH]n2)nc([C@]2(O)CC[C@H](C(=O)N[C@@H](C)c3ccc(-n4cc(F)cn4)nc3)C2)c1` [Compound 120], the 50% inhibitory concentration (IC50) in assay [1] and in assay [2] was 0.01 to 0.1 µM each time.

Turning to `Cc1cc(Nc2cc(C)[nH]n2)nc([C@@]2(O)CC[C@H](C(=O)N[C@@H](C)c3cnc(-n4cc(F)cn4)cn3)C2)c1` [Compound 124], the IC50 in assay [1] and in assay [2] was less than 0.01 µM in each case.

On to `Cc1cc(Nc2cc(C)[nH]n2)nc([C@]2(O)CC[C@@H](C(=O)N[C@@H](C)c3cnc(-n4cc(F)cn4)cn3)C2)c1` [Compound 125], for which the results for the IC50 in assay [1] and in assay [2] were 0.01 to 0.1 µM and less than 0.01 µM, respectively.

Turning to `Cc1cc(Nc2cc(C3CC3)[nH]n2)nc([C@@]2(O)CC[C@H](C(=O)NCc3ccc(-n4cc(F)cn4)nc3)C2)c1` [Compound 127], the IC50 in assay [1] and in assay [2] was less than 0.01 µM throughout.

Take `Cc1cc(Nc2cc(C)[nH]n2)nc([C@]2(O)CC[C@@](C)(C(=O)N[C@@H](C)c3ccc(-n4cc(F)cn4)nc3)C2)c1` [Compound 128]: the IC50 in assay [1] and in assay [2] was less than 0.01 µM throughout.

Take `Cc1cc(Nc2cc(C)[nH]n2)nc([C@@]2(O)CC[C@](C)(C(=O)N[C@@H](C)c3ccc(-n4cc(F)cn4)nc3)C2)c1` [Compound 129]: the IC50 in assay [1] and in assay [2] was less than 0.01 µM each time.
